Measured values as given in patent US8173705B2, “Agent for alleviating wrinkles” (Shiseido Company Ltd., priority 2007, dated 2012).

Tested on: SCCA 1 (Serpin b3) expression
Assay: Effect of suppressing SCCA 1 expression (RT-PCR in human normal keratinocytes)
Format: cell-based
Details: incubated 24 hours, G3PDH internal standard, compared with control sample
Protocol: Human normal keratinocytes (manufactured by KURABO INDUSTRIES LTD.) were incubated with culture medium, Epilife (manufactured by KURABO INDUSTRIES LTD.) For medium replacement, the medium was subcultured for three times a week. The human normal keratinocytes were seeded on 3.5 cm dishes. In the phase of 60 to 70% confluent, 200 μM and 1 mM of N-benzenesulfonyl-gamma-aminobutyric were respectively added to the dishes, which were incubated for 24 hours. Then RNAs were extracted with use of Isogen, and SCCA 1 (Serpin b3) expression levels were measured by RT-PCR. Additionally, as a control sample, the same test except no addition of gamma-aminobutyric acid derivatives was conducted. G3PDH was used as internal standard. The primers used for PCR were as follows.

SMILES: O=C(O)CCCNS(=O)(=O)c1ccccc1 [N-benzenesulfonyl-gamma-aminobutyric acid]
- Serpin b3 (SCCA 1) expression level (200 μM added): significantly decreased
- Serpin b3 (SCCA 1) expression level (1 mM added): significantly decreased
